# Measured values: PubChem BioAssay (NCI)
#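 Test compounds were applied to cells in 96-well plates for 48 hours at 5 doses. Definition used: TGI = concentration required for complete inhibition of growth.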
# What was measured:
# Assay in all cases: growth of human tumour cells (NCI), 48 h
# 786-0 renal = test system: 786-0 renal
# A498 renal = test system: A498 renal
# A549 NSCLC = test system: A549 NSCLC
# ACHN renal = test system: ACHN renal
# BT-549 breast = test system: BT-549 breast
# CAKI-1 renal = test system: CAKI-1 renal
# CCRF-CEM leukemia = test system: CCRF-CEM leukemia
# COLO 205 colon = test system: COLO 205 colon
# DU-145 prostate = test system: DU-145 prostate
# EKVX NSCLC = test system: EKVX NSCLC
# HCC-2998 colon = test system: HCC-2998 colon
# HCT-116 colon = test system: HCT-116 colon
# HCT-15 colon = test system: HCT-15 colon
# HOP-62 NSCLC = test system: HOP-62 NSCLC
# HOP-92 NSCLC = test system: HOP-92 NSCLC
# HS 578T breast = test system: HS 578T breast
# HT29 colon = test system: HT29 colon
# IGROV1 ovarian = test system: IGROV1 ovarian
# K-562 leukemia = test system: K-562 leukemia
# KM12 colon = test system: KM12 colon
# LOX IMVI melanoma = test system: LOX IMVI melanoma
# M14 melanoma = test system: M14 melanoma
# MALME-3M melanoma = test system: MALME-3M melanoma
# MCF7 breast = test system: MCF7 breast
# MDA-MB-231 breast = test system: MDA-MB-231 breast
# MDA-MB-435 = test system: MDA-MB-435
# MDA-N = test system: MDA-N
# MOLT-4 leukemia = test system: MOLT-4 leukemia
# NCI-H226 lung = test system: NCI-H226 lung
# NCI-H23 lung = test system: NCI-H23 lung
# NCI-H460 lung = test system: NCI-H460 lung
# NCI-H522 lung = test system: NCI-H522 lung
# NCI/ADR-RES ovarian = test system: NCI/ADR-RES ovarian
# OVCAR-3 ovarian = test system: OVCAR-3 ovarian
# OVCAR-4 ovarian = test system: OVCAR-4 ovarian
# OVCAR-5 ovarian = test system: OVCAR-5 ovarian
# OVCAR-8 ovarian = test system: OVCAR-8 ovarian
# PC-3 prostate = test system: PC-3 prostate
# RXF 393 renal = test system: RXF 393 renal
# SF-268 CNS = test system: SF-268 CNS
# SF-295 CNS = test system: SF-295 CNS
# SF-539 CNS = test system: SF-539 CNS
# SK-MEL-2 melanoma = test system: SK-MEL-2 melanoma
# SK-MEL-28 melanoma = test system: SK-MEL-28 melanoma
# SK-MEL-5 melanoma = test system: SK-MEL-5 melanoma
# SK-OV-3 ovarian = test system: SK-OV-3 ovarian
# SN12C renal = test system: SN12C renal
# SNB-19 CNS = test system: SNB-19 CNS
# SW-620 colon = test system: SW-620 colon
# T-47D breast = test system: T-47D breast
# TK-10 renal = test system: TK-10 renal
# U251 CNS = test system: U251 CNS
# UACC-257 melanoma = test system: UACC-257 melanoma
# UACC-62 melanoma = test system: UACC-62 melanoma
# HL-60(TB) leukemia = test system: HL-60(TB) leukemia
# RPMI-8226 leukemia = test system: RPMI-8226 leukemia
# SNB-75 CNS = test system: SNB-75 CNS
# UO-31 renal = test system: UO-31 renal
# SR leukemia = test system: SR leukemia
structure (smiles),measurement,setting,value
O=[N+]([O-])c1ccc(CSC2=C(c3ccc(Cl)cc3)S/C(=C3\SC(SCc4ccc([N+](=O)[O-])cc4)=C(c4ccc(Cl)cc4)S3)S2)cc1,TGI,786-0 renal,> 100 µM
same,TGI,A498 renal,> 100 µM
same,TGI,A549 NSCLC,> 100 µM
same,TGI,ACHN renal,> 100 µM
same,TGI,BT-549 breast,> 100 µM
same,TGI,CAKI-1 renal,> 100 µM
same,TGI,CCRF-CEM leukemia,> 100 µM
same,TGI,COLO 205 colon,> 100 µM
same,TGI,DU-145 prostate,> 100 µM
same,TGI,EKVX NSCLC,> 100 µM
same,TGI,HCC-2998 colon,> 100 µM
same,TGI,HCT-116 colon,> 100 µM
same,TGI,HCT-15 colon,> 100 µM
same,TGI,HOP-62 NSCLC,> 100 µM
same,TGI,HOP-92 NSCLC,> 100 µM
same,TGI,HS 578T breast,> 100 µM
same,TGI,HT29 colon,> 100 µM
same,TGI,IGROV1 ovarian,> 100 µM
same,TGI,K-562 leukemia,> 100 µM
same,TGI,KM12 colon,> 100 µM
same,TGI,LOX IMVI melanoma,> 100 µM
same,TGI,M14 melanoma,> 100 µM
same,TGI,MALME-3M melanoma,> 100 µM
same,TGI,MCF7 breast,> 100 µM
same,TGI,MDA-MB-231 breast,> 100 µM
same,TGI,MDA-MB-435,> 100 µM
same,TGI,MDA-N,> 100 µM
same,TGI,MOLT-4 leukemia,> 100 µM
same,TGI,NCI-H226 lung,> 100 µM
same,TGI,NCI-H23 lung,> 100 µM
same,TGI,NCI-H460 lung,> 100 µM
same,TGI,NCI-H522 lung,> 100 µM
same,TGI,NCI/ADR-RES ovarian,> 100 µM
same,TGI,OVCAR-3 ovarian,> 100 µM
same,TGI,OVCAR-4 ovarian,> 100 µM
same,TGI,OVCAR-5 ovarian,> 100 µM
same,TGI,OVCAR-8 ovarian,> 100 µM
same,TGI,PC-3 prostate,> 100 µM
same,TGI,RXF 393 renal,> 100 µM
same,TGI,SF-268 CNS,> 100 µM
same,TGI,SF-295 CNS,> 100 µM
same,TGI,SF-539 CNS,> 100 µM
same,TGI,SK-MEL-2 melanoma,> 100 µM
same,TGI,SK-MEL-28 melanoma,> 100 µM
same,TGI,SK-MEL-5 melanoma,> 100 µM
same,TGI,SK-OV-3 ovarian,> 100 µM
same,TGI,SN12C renal,> 100 µM
same,TGI,SNB-19 CNS,> 100 µM
same,TGI,SW-620 colon,> 100 µM
same,TGI,T-47D breast,> 100 µM
same,TGI,TK-10 renal,> 100 µM
same,TGI,U251 CNS,> 100 µM
same,TGI,UACC-257 melanoma,> 100 µM
same,TGI,UACC-62 melanoma,> 100 µM
N#CC1=C(N)OC2=C(CCCc3ccc([N+](=O)[O-])cc32)C1c1ccc(Cl)cc1 (stereo unspecified),TGI,786-0 renal,23.9 µM
same,TGI,A498 renal,35.5 µM
same,TGI,A549 NSCLC,> 100 µM
same,TGI,ACHN renal,46.5 µM
same,TGI,BT-549 breast,75.3 µM
same,TGI,CAKI-1 renal,> 100 µM
same,TGI,CCRF-CEM leukemia,> 100 µM
same,TGI,COLO 205 colon,> 100 µM
same,TGI,DU-145 prostate,63.2 µM
same,TGI,EKVX NSCLC,71.7 µM
same,TGI,HCC-2998 colon,52.3 µM
same,TGI,HCT-116 colon,12.5 µM
same,TGI,HCT-15 colon,> 100 µM
same,TGI,HL-60(TB) leukemia,7.26 µM
same,TGI,HOP-62 NSCLC,> 100 µM
same,TGI,HOP-92 NSCLC,> 100 µM
same,TGI,HS 578T breast,88.8 µM
same,TGI,HT29 colon,> 100 µM
same,TGI,IGROV1 ovarian,> 100 µM
same,TGI,K-562 leukemia,> 100 µM
same,TGI,KM12 colon,> 100 µM
same,TGI,LOX IMVI melanoma,44.5 µM
same,TGI,M14 melanoma,49.8 µM
same,TGI,MALME-3M melanoma,31.4 µM
same,TGI,MCF7 breast,22.6 µM
same,TGI,MDA-MB-231 breast,> 100 µM
same,TGI,MDA-MB-435,65.5 µM
same,TGI,MDA-N,39.6 µM
same,TGI,MOLT-4 leukemia,93.1 µM
same,TGI,NCI-H226 lung,76.3 µM
same,TGI,NCI-H23 lung,47.7 µM
same,TGI,NCI-H460 lung,15.7 µM
same,TGI,NCI-H522 lung,31.7 µM
same,TGI,NCI/ADR-RES ovarian,78.1 µM
same,TGI,OVCAR-3 ovarian,29.4 µM
same,TGI,OVCAR-4 ovarian,28.3 µM
same,TGI,OVCAR-5 ovarian,> 100 µM
same,TGI,OVCAR-8 ovarian,62.6 µM
same,TGI,PC-3 prostate,> 100 µM
same,TGI,RPMI-8226 leukemia,32 µM
same,TGI,RXF 393 renal,19.5 µM
same,TGI,SF-268 CNS,> 100 µM
same,TGI,SF-295 CNS,> 100 µM
same,TGI,SF-539 CNS,29.5 µM
same,TGI,SK-MEL-2 melanoma,54.7 µM
same,TGI,SK-MEL-28 melanoma,> 100 µM
same,TGI,SK-MEL-5 melanoma,15.7 µM
same,TGI,SK-OV-3 ovarian,> 100 µM
same,TGI,SN12C renal,6.78 µM
same,TGI,SNB-19 CNS,> 100 µM
same,TGI,SNB-75 CNS,> 100 µM
same,TGI,SW-620 colon,> 100 µM
same,TGI,T-47D breast,53.9 µM
same,TGI,TK-10 renal,> 100 µM
same,TGI,U251 CNS,28 µM
same,TGI,UACC-257 melanoma,> 100 µM
same,TGI,UACC-62 melanoma,20.2 µM
same,TGI,UO-31 renal,> 100 µM
NC1=Nc2ncccc2C(=O)NN1,TGI,786-0 renal,> 10 µM
same,TGI,A498 renal,> 10 µM
same,TGI,A549 NSCLC,> 10 µM
same,TGI,ACHN renal,> 10 µM
same,TGI,BT-549 breast,> 10 µM
same,TGI,CCRF-CEM leukemia,> 10 µM
same,TGI,DU-145 prostate,> 10 µM
same,TGI,EKVX NSCLC,> 10 µM
same,TGI,HCC-2998 colon,> 10 µM
same,TGI,HCT-116 colon,> 10 µM
same,TGI,HCT-15 colon,> 10 µM
same,TGI,HL-60(TB) leukemia,> 10 µM
same,TGI,HOP-62 NSCLC,> 10 µM
same,TGI,HOP-92 NSCLC,> 10 µM
same,TGI,HS 578T breast,> 10 µM
same,TGI,HT29 colon,> 10 µM
same,TGI,IGROV1 ovarian,> 10 µM
same,TGI,K-562 leukemia,> 10 µM
same,TGI,KM12 colon,> 10 µM
same,TGI,LOX IMVI melanoma,> 10 µM
same,TGI,M14 melanoma,> 10 µM
same,TGI,MALME-3M melanoma,> 10 µM
same,TGI,MCF7 breast,> 10 µM
same,TGI,MDA-MB-231 breast,> 10 µM
same,TGI,MDA-MB-435,> 10 µM
same,TGI,MDA-N,> 10 µM
same,TGI,MOLT-4 leukemia,> 10 µM
same,TGI,NCI-H226 lung,> 10 µM
same,TGI,NCI-H23 lung,> 10 µM
same,TGI,NCI-H460 lung,> 10 µM
same,TGI,OVCAR-3 ovarian,> 10 µM
same,TGI,OVCAR-5 ovarian,> 10 µM
same,TGI,OVCAR-8 ovarian,> 10 µM
same,TGI,PC-3 prostate,> 10 µM
same,TGI,RPMI-8226 leukemia,> 10 µM
same,TGI,RXF 393 renal,> 10 µM
same,TGI,SF-268 CNS,> 10 µM
same,TGI,SF-295 CNS,> 10 µM
same,TGI,SF-539 CNS,> 10 µM
same,TGI,SK-MEL-2 melanoma,> 10 µM
same,TGI,SK-MEL-28 melanoma,> 10 µM
same,TGI,SK-MEL-5 melanoma,> 10 µM
same,TGI,SK-OV-3 ovarian,> 10 µM
same,TGI,SN12C renal,> 10 µM
same,TGI,SNB-19 CNS,> 10 µM
same,TGI,SNB-75 CNS,> 10 µM
same,TGI,SR leukemia,> 10 µM
same,TGI,SW-620 colon,> 10 µM
same,TGI,T-47D breast,> 10 µM
same,TGI,TK-10 renal,> 10 µM
same,TGI,U251 CNS,> 10 µM
same,TGI,UACC-257 melanoma,> 10 µM
same,TGI,UACC-62 melanoma,> 10 µM
same,TGI,UO-31 renal,> 10 µM
